According to ChEMBL document CHEMBL1130001, “Quantitative structure-activity relationships among macrolide antibacterial agents: in vitro and in vivo potency against Pasteurella multocida” (J Med Chem, 1997):
Converted amounts (≈) assume the structure as drawn.

How the values were obtained:
[1] = not given; remark: listed apart in the source
[2] = not given; remark: listed apart in the source
[3] = test system: Pasteurella multocida; assay type: functional
Description: Log value of the Minimum inhibitory concentration against Pasteurella multocida.

[4] = physchem
Description: Dissociation constant (pKa)

[5] = test system: Pasteurella multocida; assay: Minimum inhibitory concentration against Pasteurella multocida.; assay type: functional
[6] = species on record: Mus musculus; assay: Protective dose at which 50% of infected, treated mice survive; assay type: functional; conditions: read-out: PD50
[7] = physchem; remark: listed apart in the source
Description: Dissociation constant (pKa)

[8] = test system: Pasteurella multocida; assay: Minimum inhibitory concentration against Pasteurella multocida; assay type: functional
[9] = physchem; remark: listed apart in the source
Description: Dissociation constant (pKa)

| Structure (SMILES) | pCF | Log K [1] | pNF [2] | Log 1/MIC [3] | pKa [4] | MIC [5] | ED50 [6] | pKa [7] | MIC [8] | pKa [9] |
| --- | --- | --- | --- | --- | --- | --- | --- | --- | --- | --- |
| CC[C@H]1OC(=O)C[C@@H](O)[C@H](C)[C@@H](O[C@@H]2O[C@H](C)[C@@H](O)[C@@H](N(C)C)[C@H]2O)[C@@H](CC=O)C[C@@H](C)C(=O)/C=C/C(C)=C/[C@@H]1CO[C@@H]1O[C@H](C)[C@@H](O)[C@@H](OC)[C@H]1OC | 0.045 | 0.17 | 1.005 | 2.39 | 8.36 | – | – | – | – | – |
| CO[C@H]1C[C@H](O[C@H]2[C@H](C)[C@@H](O[C@@H]3O[C@H](C)C[C@H](N(C)C)[C@H]3O)[C@@H](C)CC3(CO3)C(=O)[C@H](C)[C@@H](O)[C@@H](C)[C@@H](C)OC(=O)[C@@H]2C)O[C@@H](C)[C@@H]1O (single isomer, unassigned) [OLEANDOMYCIN] | 0.015 | 0.01 | 1.455 | – | 8.84 | 6.25 µg/mL (≈ 9.09 µM) | > 150 mg/kg | – | – | – |
| CO[C@@H]1[C@@H](O[C@@H]2O[C@H](C)[C@@H](O[C@H]3C[C@@](C)(O)[C@@H](OC(=O)CC(C)C)[C@H](C)O3)[C@H](N(C)C)[C@H]2O)[C@@H](CC=O)C[C@@H](C)C(=O)/C=C/[C@@H]2O[C@H]2C[C@@H](C)OC(=O)C[C@H]1OC(C)=O [CARBOMYCIN A] | 0.209 | 1.48 | 0.419 | – | 7.61 | 1.56 µg/mL (≈ 1.85 µM) | > 150 mg/kg | – | – | – |
| CC[C@H]1OC(=O)CC(O)[C@H](C)[C@@H](O[C@@H]2O[C@H](C)C[C@H](N(C)C)[C@H]2O)[C@@H](CCNCC(C)(C)CO)C[C@@H](C)C(=O)/C=C/C(C)=C/[C@@H]1C (stereo partly specified) | 1.161 | 0.43 | 3.481 | 4.12 | 8.53 | – | – | 9.72 | – | – |
| CC[C@H]1OC(=O)CC(O)[C@H](C)[C@@H](O[C@@H]2O[C@H](C)C[C@H](N(C)C)[C@H]2O)[C@@H](CCNCCO)C[C@@H](C)C(=O)/C=C/C(C)=C/[C@@H]1C (stereo partly specified) | 1.217 | 0.1 | 3.437 | 3.79 | 8.59 | – | – | 9.62 | – | – |
| CC[C@H]1OC(=O)[C@H](C)[C@@H](O[C@H]2C[C@@](C)(OC)[C@@H](O)[C@H](C)O2)[C@H](C)[C@@H](O[C@@H]2O[C@H](C)C[C@H](N(C)C)[C@H]2O)[C@](C)(OC)C[C@@H](C)C(=O)[C@H](C)[C@@H](O)[C@]1(C)O [CLARITHROMYCIN] | 0.011 | 0.63 | 1.601 | – | – | 0.39 µg/mL (≈ 0.521 µM) | 100 mg/kg | – | – | – |
| CO[C@@H]1[C@@H](O[C@@H]2O[C@H](C)[C@@H](O[C@H]3C[C@@](C)(O)[C@@H](OC(=O)CC(C)C)[C@@H](C)O3)[C@@H](N(C)C)[C@H]2O)[C@@H](CC=O)C[C@@H](C)C(=O)/C=C/C=C/C[C@@H](C)OC(=O)C[C@H]1OC(C)=O | – | – | – | – | – | 6.25 µg/mL (≈ 7.57 µM) | > 150 mg/kg | – | – | – |
| CC[C@H]1OC(=O)CC(O)[C@H](C)[C@@H](O[C@@H]2O[C@H](C)C[C@H](N(C)C)[C@H]2O)[C@@H](CCNC2C(O)CCCC2O)C[C@@H](C)C(=O)/C=C/C(C)=C/[C@@H]1C (stereo partly specified) | 1.189 | 0.23 | 3.099 | 3.53 | 8.56 | – | – | 9.31 | – | – |
| CC[C@H]1OC(=O)[C@H](C)[C@@H](O[C@H]2C[C@@](C)(OC)[C@@H](O)[C@H](C)O2)[C@H](C)[C@@H](O[C@@H]2O[C@H](C)C[C@H](N(C)C)[C@H]2O)[C@](C)(O)C[C@@H](C)CN(C)[C@H](C)[C@@H](O)[C@]1(C)O [AZITHROMYCIN] | 1.36 | 0.38 | 3.41 | – | – | – | 16 mg/kg | – | 0.05 µg/mL (≈ 0.0668 µM) | – |
| CC[C@H]1OC(=O)CC(O)[C@H](C)[C@@H](O[C@@H]2O[C@H](C)C[C@H](N(C)C)[C@H]2O)[C@@H](CCN(C)CCN(C)C)C[C@@H](C)C(=O)/C=C/C(C)=C/[C@@H]1C (stereo partly specified) | 0.863 | -0.23 | 2.413 | 2.44 | 5.61 | – | – | 8.19 | – | 8.95 |
| CC[C@H]1OC(=O)C[C@@H](O)[C@H](C)[C@@H](O[C@@H]2O[C@H](C)[C@@H](O)[C@H](N(C)C)[C@H]2O)[C@@H](CCN2C[C@H](C)C[C@H](C)C2)C[C@@H](C)C(=O)/C=C/C(C)=C/[C@@H]1CO[C@@H]1O[C@H](C)[C@@H](O)[C@@H](OC)[C@H]1OC [TILMICOSIN] | 0.847 | 0.26 | 3.007 | – | 8.18 | 1.56 µg/mL (≈ 1.79 µM) | 100 mg/kg | 9.56 | – | – |
| CC[C@H]1OC(=O)C[C@@H](O)[C@H](C)[C@@H](O[C@@H]2O[C@H](C)C[C@H](N(C)C)[C@H]2O)[C@@H](CC=O)C[C@@H](C)C(=O)/C=C/[C@]2(C)O[C@H]2[C@@H]1C [ROSARAMICIN] | 0.017 | 0.63 | 1.407 | – | 8.79 | 0.2 µg/mL (≈ 0.344 µM) | 68 mg/kg | – | – | – |
| CCC1OC(=O)CC(O)C(C)C(O[C@@H]2O[C@H](C)C[C@H](N(C)C)[C@H]2O)C(CC=O)CC(C)C(=O)/C=C/C(C)=C/C1C (stereo partly specified) | 0.016 | 0.86 | 1.446 | – | 8.83 | – | – | – | – | – |
| CC[C@H]1OC(=O)CC(O)[C@H](C)[C@@H](O[C@@H]2O[C@H](C)C[C@H](N(C)C)[C@H]2O)[C@@H](CCN(CCCN(C)C)C(=O)[C@H](C)N)C[C@@H](C)C(=O)/C=C/C(C)=C/[C@@H]1C (stereo partly specified) | 1.938 | -0.12 | 4.138 | 3.27 | 7.81 | – | – | 8.78 | – | 9.6 |
| CC[C@H]1OC(=O)C[C@@H](O)[C@H](C)[C@@H](O[C@@H]2O[C@H](C)[C@@H](O[C@H]3C[C@@](C)(O)[C@@H](O)[C@H](C)O3)[C@H](N(C)C)[C@H]2O)[C@@H](CC=O)C[C@@H](C)C(=O)/C=C/C(C)=C/[C@@H]1CO[C@@H]1O[C@H](C)[C@@H](O)[C@@H](OC)[C@H]1OC [TYLOSIN] | 0.167 | 0.68 | 0.497 | – | 7.73 | 25 µg/mL (≈ 27.3 µM) | 86 mg/kg | – | – | – |
| CC[C@H]1OC(=O)CC(O)[C@H](C)[C@@H](O[C@@H]2O[C@H](C)C[C@H](N(C)C)[C@H]2O)[C@@H](CCNCCCN(C)C)C[C@@H](C)C(=O)/C=C/C(C)=C/[C@@H]1C (stereo partly specified) | 2.157 | 0.19 | 4.887 | 3.22 | 7.97 | – | – | 8.88 | – | 10.1 |
| CC[C@H]1OC(=O)[C@H](C)[C@@H](O[C@H]2C[C@@](C)(OC)[C@@H](O)[C@H](C)O2)[C@H](C)[C@@H](O[C@@H]2O[C@H](C)C[C@H](N(C)C)[C@H]2O)[C@](C)(O)C[C@@H](C)C(=O)[C@H](C)[C@@H](O)[C@]1(C)O [ERYTHROMYCIN] | 0.014 | 0.35 | 1.494 | – | 8.88 | 0.78 µg/mL (≈ 1.06 µM) | > 150 mg/kg | – | – | – |
| CC[C@H]1OC(=O)CC(O)[C@H](C)[C@@H](O[C@@H]2O[C@H](C)C[C@H](N(C)C)[C@H]2O)[C@@H](CCN(C)CCCN(C)C(=O)[C@H](C)N)C[C@@H](C)C(=O)/C=C/C(C)=C/[C@@H]1C (stereo partly specified) | 1.307 | -0.16 | 3.067 | 3.27 | 7.03 | – | – | 8.53 | – | 9.16 |
| CC[C@H]1OC(=O)CC(O)[C@H](C)[C@@H](O[C@@H]2O[C@H](C)C[C@H](N(C)C)[C@H]2O)[C@@H](CCN(C)CCN(C)C(=O)[C@H](C)N)C[C@@H](C)C(=O)/C=C/C(C)=C/[C@@H]1C (stereo partly specified) | 0.891 | 0.02 | 2.391 | 4.15 | 6.81 | – | – | 8.13 | – | 8.9 |
